Results: patent US20090054493A1, “THIAZOLE DERIVATIVES AS PPAR DELTA LIGANDS AND THEIR MANUFACTURING PROCESS” (priority 2005, published 2009)

Assays:
Type in all cases: cell-based
PPARα = target: T1, PPARα (Homo sapiens, UniProt Q07869); assay: Transfection assay (luciferase reporter) in CV-1 cells, PPARα; conditions: full-length PPAR plasmid, luciferase normalized with β-galactosidase
T1 construct: full-length PPARs plasmid DNA; expressed in transfected cells; host or cells: CV-1 cells
T1 sequence (Q07869 1-468): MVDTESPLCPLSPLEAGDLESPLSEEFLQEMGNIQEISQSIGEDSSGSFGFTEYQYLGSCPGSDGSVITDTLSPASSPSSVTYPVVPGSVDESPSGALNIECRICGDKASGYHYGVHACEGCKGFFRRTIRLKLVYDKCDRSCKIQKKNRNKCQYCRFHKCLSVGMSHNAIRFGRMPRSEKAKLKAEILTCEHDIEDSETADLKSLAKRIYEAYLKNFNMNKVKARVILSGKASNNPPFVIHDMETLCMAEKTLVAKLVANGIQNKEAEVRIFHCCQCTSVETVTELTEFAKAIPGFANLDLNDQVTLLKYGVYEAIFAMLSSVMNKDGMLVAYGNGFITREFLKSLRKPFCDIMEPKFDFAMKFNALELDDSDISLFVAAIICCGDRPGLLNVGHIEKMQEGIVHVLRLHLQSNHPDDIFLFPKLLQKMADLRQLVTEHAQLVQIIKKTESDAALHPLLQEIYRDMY
Protocol: (§1) The compounds prepared in Examples were tested for PPARδ activity by a transfection assay. In addition, the compounds were tested for selectivity for PPARα and PPARγ, the subtypes of PPARs, and also tested for toxicity by a MTT assay.
(§2) A transfection assay was performed using CV-1 cells. The culture of the cells was performed using a DMEM medium (10% FBS, DBS (delipidated) and 1% penicillin/streptomycin) on a 96-well plate in a 5% carbon dioxide-containing incubator at 37° C. The test was performed in four steps consisting of cell inoculation, transfection, treatment of the compounds, and analysis of results. Specifically, CV-1 cells were inoculated onto a 96-well plate at a concentration of 5,000 cells/well, and after 24 hours, the cells were transfected. In the cell transfection, full-length PPARs plasmid DNA, reporter DNA that has luciferase activity and thus allows the identification of PPARs, and β-galactosidase DNA that provides the information of transfection efficiency, were used as transfection reagents. Each of the compounds developed in the present invention was dissolved in dimethylsulfoxide (DMSO) and transfected into the cells at various concentrations using media. The cells were cultured in an incubator for 24 and then lysed with lysis buffer. The lysed cells were measured for luciferase and β-galactosidase activities using a luminometer and a microplate reader. The measured luciferase values were normalized with the β-galactosidase values and graphed. From the graph, EC50 values were determined.

MTT assay, cytotoxicity = conditions: African green monkey, CV-1 cells, read-out: LC50 Cytotoxicity
Protocol: The compounds of Examples 47-97 according to the present invention were tested for cytotoxicity using a MTT assay. MTT is a water-soluble yellow substance, but if it is introduced into living cells, it will be degenerated into a water-insoluble purple crystal due to dehydrogenase contained in mitochondria. If this substance is dissolved in dimethylsulfoxide and then measured for absorbance at 550 nm, cytotoxicity can be assayed. The test method is as follows.
CV-1 cells were first inoculated onto a 96-well plate at a concentration of 5,000 cells/well. The inoculated cells were cultured in a 5% carbon dioxide-containing humidified incubator at 37° C. for 24 hours, and then treated with the inventive compounds at various concentrations. After 24 hours of culture, a MTT reagent was added to the cultured cells. After 15 minutes of culture, the resulting purple crystal was dissolved in dimethylsulfoxide and then measured for absorbance using a microplate reader. From the measured absorbance, cytotoxicity was assayed.

PPARδ = target: T2, PPARδ (Homo sapiens, UniProt Q03181); assay: Transfection assay (luciferase reporter) in CV-1 cells, PPARδ; set-up: full-length PPARs plasmid DNA; expressed in transfected cells; host or cells: CV-1 cells; conditions: full-length PPAR plasmid, luciferase normalized with β-galactosidase
T2 sequence (Q03181 1-441): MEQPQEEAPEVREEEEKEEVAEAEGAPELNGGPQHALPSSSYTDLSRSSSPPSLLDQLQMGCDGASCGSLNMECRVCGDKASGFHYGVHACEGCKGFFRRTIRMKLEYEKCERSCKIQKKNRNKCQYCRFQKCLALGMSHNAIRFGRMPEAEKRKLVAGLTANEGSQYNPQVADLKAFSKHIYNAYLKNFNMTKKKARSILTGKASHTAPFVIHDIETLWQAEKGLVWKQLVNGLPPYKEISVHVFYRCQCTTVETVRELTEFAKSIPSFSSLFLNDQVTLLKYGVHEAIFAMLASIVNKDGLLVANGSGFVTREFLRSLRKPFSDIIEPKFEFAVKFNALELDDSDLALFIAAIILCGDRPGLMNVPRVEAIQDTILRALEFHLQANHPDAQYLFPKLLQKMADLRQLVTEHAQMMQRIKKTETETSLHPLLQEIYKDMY
Protocol: as §1
as §2, with “The test was performed in four steps consisting of cell inoculation, transfection, treatment of the compounds, and analysis of results.” left out

PPARγ = target: T3, PPARγ (Homo sapiens, UniProt P37231); assay: Transfection assay (luciferase reporter) in CV-1 cells, PPARγ; conditions: full-length PPAR plasmid, luciferase normalized with β-galactosidase
T3 construct: full-length PPARs plasmid DNA; expressed in transfected cells; host or cells: CV-1 cells
T3 sequence (P37231 1-505): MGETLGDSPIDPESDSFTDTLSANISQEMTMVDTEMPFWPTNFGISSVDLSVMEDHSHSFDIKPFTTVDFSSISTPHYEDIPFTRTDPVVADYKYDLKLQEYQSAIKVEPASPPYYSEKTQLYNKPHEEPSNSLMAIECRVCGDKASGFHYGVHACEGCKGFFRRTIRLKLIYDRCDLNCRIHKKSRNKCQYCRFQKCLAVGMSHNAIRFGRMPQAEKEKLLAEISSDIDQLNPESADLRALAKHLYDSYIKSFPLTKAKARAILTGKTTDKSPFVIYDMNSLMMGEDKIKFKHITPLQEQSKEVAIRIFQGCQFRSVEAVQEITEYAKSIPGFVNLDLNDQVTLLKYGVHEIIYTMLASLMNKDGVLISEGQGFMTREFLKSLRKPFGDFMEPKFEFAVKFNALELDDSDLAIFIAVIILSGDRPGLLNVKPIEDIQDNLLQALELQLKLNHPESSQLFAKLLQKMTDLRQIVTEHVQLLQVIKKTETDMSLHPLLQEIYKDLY
Protocol: as §1
as §2, with “The test was performed in four steps consisting of cell inoculation, transfection, treatment of the compounds, and analysis of results.” left out

Structure (SMILES)	EC50 PPARα (PPARα)	CC50 at 24 h (MTT assay, cytotoxicity)	EC50 (PPARδ)	EC50 PPARγ (PPARγ)
CCOC(=O)COc1ccc(SC(Cc2c(F)cccc2Cl)c2sc(-c3ccc(C(F)(F)F)cc3)nc2C)cc1C (centres unmarked) [Example 47]	ia	> 100 µM	0.0065 µM	ia
Cc1cc(SC(CCc2ccccc2)c2sc(-c3ccc(C(F)(F)F)cc3)nc2C)ccc1OCC(=O)O (centres unmarked) [Example 68, 2-[4-[1-[2-[4-(trifluoromethyl)phenyl]-4-methylthiazol-5-yl]-3-phenylpropylthio]-2-methylphenoxy]acetic acid]	ia	> 100 µM	0.0027 µM	ia
Cc1cc(SC(CCCc2ccccc2)c2sc(-c3ccc(C(F)(F)F)cc3)nc2C)ccc1OCC(=O)O (centres unmarked) [Example 70, 2-[4-[1-[2-[4-(trifluoromethyl)phenyl]-4-methylthiazol-5-yl]-4-phenylbutylthio]-2-methylphenoxy]acetic acid]	ia	91 µM	0.0061 µM	ia
Cc1cc(SC(CCCCc2ccccc2)c2sc(-c3ccc(C(F)(F)F)cc3)nc2C)ccc1OCC(=O)O (centres unmarked) [Example 71, 2-[4-[1-[2-[4-(trifluoromethyl)phenyl]-4-methylthiazol-5-yl]-5-phenylpentylthio]-2-methylphenoxy]acetic acid]	ia	93 µM	0.0388 µM	ia
Cc1cc(SC(CCCCCc2ccccc2)c2sc(-c3ccc(C(F)(F)F)cc3)nc2C)ccc1OCC(=O)O (centres unmarked) [Example 72, 2-[4-[1-[2-[4-(trifluoromethyl)phenyl]-4-methylthiazol-5-yl]-6-phenylhexylthio]-2-methylphenoxy]acetic acid]	ia	92 µM	0.0115 µM	ia
Cc1cc(SC(CCCCCCCc2ccccc2)c2sc(-c3ccc(C(F)(F)F)cc3)nc2C)ccc1OCC(=O)O (centres unmarked) [Example 73, 2-[4-[1-[2-[4-(trifluoromethyl)phenyl]-4-methylthiazol-5-yl]-8-phenyloctylthio]-2-methylphenoxy]acetic acid]	ia	94 µM	0.0572 µM	ia
Cc1cc(SC(CCCCCCCCCCc2ccccc2)c2sc(-c3ccc(C(F)(F)F)cc3)nc2C)ccc1OCC(=O)O (centres unmarked) [Example 74, 2-[4-[1-[2-[4-(trifluoromethyl)phenyl]-4-methylthiazol-5-yl]-11-phenylundecylthio]-2-methylphenoxy]acetic acid]	ia	> 100 µM	0.132 µM	ia
Cc1cc(SC(Cc2c(F)cccc2Cl)c2sc(-c3ccc(C(F)(F)F)cc3)nc2C)ccc1OCC(=O)O (centres unmarked) [Example 75, 2-[4-[2-(2-chloro-6-fluorophenyl)-1-[2-[4-(trifluoromethyl)phenyl]-4-methylthiazol-5-yl]ethylthio]-2-methylphenoxy]acetic acid]	ia	> 100 µM	0.0021 µM	ia
Cc1cc(SC(Cc2ccc(C#N)cc2)c2sc(-c3ccc(C(F)(F)F)cc3)nc2C)ccc1OCC(=O)O (centres unmarked) [Example 76, 2-[4-[2-(4-cyanophenyl)-1-[2-[4-(trifluoromethyl)phenyl]-4-methylthiazol-5-yl]ethylthio]-2-methylphenoxy]acetic acid]	ia	> 100 µM	0.0221 µM	ia
Cc1cc(SC(Cc2ccc(C(F)(F)F)cc2)c2sc(-c3ccc(C(F)(F)F)cc3)nc2C)ccc1OCC(=O)O (centres unmarked) [Example 78, 2-[4-[2-[4-(trifluoromethyl)phenyl]-1-[2-[4-(trifluoromethyl)phenyl]-4-methylthiazol-5-yl]ethylthio]-2-methylphenoxy]acetic acid]	ia	> 100 µM	0.0133 µM	ia
COc1cc(CC(Sc2ccc(OCC(=O)O)c(C)c2)c2sc(-c3ccc(C(F)(F)F)cc3)nc2C)cc(OC)c1 (centres unmarked) [Example 79, 2-[4-[1-[2-[4-(trifluoromethyl)phenyl]-4-methylthiazol-5-yl]-2-(3,5-dimethoxyphenyl)ethylthio]-2-methylphenoxy]acetic acid]	ia	> 100 µM	0.0464 µM	ia
Cc1cc(SC(Cc2c(F)c(F)c(F)c(F)c2F)c2sc(-c3ccc(C(F)(F)F)cc3)nc2C)ccc1OCC(=O)O (centres unmarked) [Example 80, 2-[4-[1-[2-[4-(trifluoromethyl)phenyl]-4-methylthiazol-5-yl]-2-(perfluorophenyl)ethylthio]-2-methylphenoxy]acetic acid]	ia	> 100 µM	0.0464 µM	
Cc1cc(SC(Cc2ccc(Br)cc2)c2sc(-c3ccc(C(F)(F)F)cc3)nc2C)ccc1OCC(=O)O (centres unmarked) [Example 81, 2-[4-[2-(4-bromophenyl)-1-[2-[4-(trifluoromethyl)phenyl]-4-methylthiazol-5-yl]ethylthio]-2-methylphenoxy]acetic acid]		92 µM	0.0115 µM	ia
Cc1cc(SC(Cc2c(F)cccc2C(F)(F)F)c2sc(-c3ccc(C(F)(F)F)cc3)nc2C)ccc1OCC(=O)O (centres unmarked) [Example 82, 2-[4-[2-[2-fluoro-6-(trifluoromethyl)phenyl]-1-[2-[4-(trifluoromethyl)phenyl]-4-methylthiazol-5-yl]ethylthio]-2-methylphenoxy]acetic acid]	ia	> 100 µM	0.0026 µM	
